The values that follow come from patent publication US7300946B2, “N-(substituted arylmethyl)-4-(disubstituted methyl) piperidines and pyridines” (Bayer CropScience AG, priority 2002, dated 2007).

In this assay the test system is tobacco budworm (Heliothis virescens [Fabricius]). Put plainly: surface-treated diet test against the tobacco budworm. Type of assay: in vivo. The conditions noted are these: tobacco budworm second instar larvae, surface-treated diet, 0.25 millimoles of candidate insecticide on the surface of the diet, five-day exposure; for Percent Mortality: compared to total number of insects infested; for Percent Growth Inhibition: inhibition of insect weight relative to untreated controls. The method in brief:
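Wheat germ artificial diet surface-treated with 40 µL of 50 mM DMSO stock diluted 1:7 in 1:1 water/acetone (0.25 millimolar on diet), or sub-multiples for rate tests. One second-instar larva per well, 25° C, 60% RH, 5 days; percent weight inhibition vs DMSO controls and percent mortality.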

SMILES strings stand for the structures.

For `O=C(Nc1ccc(F)cc1)OC(c1ccc(Cl)cc1)C1CCN(Cc2ccc(Oc3ccccn3)cc2)CC1` (stereo not drawn) [Compound 630], the “Percent Mortality” value is 100% and the “Percent Growth Inhibition” value is given as 100%. For the compound `O=C(Nc1cc(F)cc(F)c1)OC(c1ccc(Cl)cc1)C1CCN(Cc2ccc(Oc3ccccn3)cc2)CC1` (stereo not drawn) [Compound 631], the “Percent Mortality” value amounted to 100% and the “Percent Growth Inhibition” value was found to be 100%. Take `Cc1cc(C)cc(NC(=O)OC(c2ccc(Cl)cc2)C2CCN(Cc3ccc(Oc4ccccn4)cc3)CC2)c1` (stereo not drawn) [Compound 632]: the “Percent Mortality” value is recorded as 100% and the “Percent Growth Inhibition” value is 100%. On to `COc1cc(NC(=O)OC(c2ccc(Cl)cc2)C2CCN(Cc3ccc(Oc4ccccn4)cc3)CC2)cc(OC)c1` (stereo not drawn) [Compound 633], for which the “Percent Mortality” value is recorded as 50% and the “Percent Growth Inhibition” value turned out to be 100%. For `O=C(Nc1cccc(C(F)(F)F)c1)OC(c1ccc(Cl)cc1)C1CCN(Cc2ccc(Oc3ccccn3)cc2)CC1` (stereo not drawn) [Compound 634] the same measures were 100% and 100%.

Regarding `O=C(Nc1ccc(C(F)(F)F)cc1)OC(c1ccc(Cl)cc1)C1CCN(Cc2ccc(Oc3ccccn3)cc2)CC1` (stereo not drawn) [Compound 635], the “Percent Mortality” value was determined as 100% and the “Percent Growth Inhibition” value was found to be 100%. For `CN(C(=O)OC(c1ccc(Cl)cc1)C1CCN(Cc2ccc(Oc3ccccn3)cc2)CC1)c1ccc(C(F)(F)F)cc1` (stereo not drawn) [Compound 636], the “Percent Mortality” value was 100% and the “Percent Growth Inhibition” value was determined as 100%. As for `CCN(C(=O)OC(c1ccc(Cl)cc1)C1CCN(Cc2ccc(Oc3ccccn3)cc2)CC1)c1ccc(C(F)(F)F)cc1` (stereo not drawn) [Compound 637], the “Percent Mortality” value was determined as 100% and the “Percent Growth Inhibition” value is reported as 100%. Consider `COC(=O)c1cccc(NC(=O)OC(c2ccc(Cl)cc2)C2CCN(Cc3ccc(Oc4ccccn4)cc3)CC2)c1` (stereo not drawn) [Compound 638], for which the “Percent Mortality” value came to 100% and the “Percent Growth Inhibition” value amounted to 100%.

Turning to `O=C(Nc1ccc(Cl)cc1)OC(c1ccc(F)cc1)C1CCN(Cc2ccc(Oc3ccccn3)cc2)CC1` (stereo not drawn) [Compound 639], the “Percent Mortality” value amounted to 100% and the “Percent Growth Inhibition” value worked out at 100%. Turning to `O=C(Nc1ccc(F)cc1)OC(c1ccc(F)cc1)C1CCN(Cc2ccc(Oc3ccccn3)cc2)CC1` (stereo not drawn) [Compound 640], the “Percent Mortality” value was determined as 100% and the “Percent Growth Inhibition” value worked out at 100%.

Take `O=C(Nc1cc(F)cc(F)c1)OC(c1ccc(F)cc1)C1CCN(Cc2ccc(Oc3ccccn3)cc2)CC1` (stereo not drawn) [Compound 641]: the “Percent Mortality” value stood at 100% and the “Percent Growth Inhibition” value is 100%. Take `O=C(Nc1cccc(C(F)(F)F)c1)OC(c1ccc(F)cc1)C1CCN(Cc2ccc(Oc3ccccn3)cc2)CC1` (stereo not drawn) [Compound 642]: the “Percent Mortality” value is recorded as 100% and the “Percent Growth Inhibition” value is 100%. In the case of `O=C(Nc1ccc(C(F)(F)F)cc1)OC(c1ccc(F)cc1)C1CCN(Cc2ccc(Oc3ccccn3)cc2)CC1` (stereo not drawn) [Compound 643], the “Percent Mortality” value was found to be 100% and the “Percent Growth Inhibition” value was found to be 100%. On to `O=C(Nc1ccc(Cl)cc1)OC(c1ccc(Cl)c(Cl)c1)C1CCN(Cc2ccc(Oc3ccccn3)cc2)CC1` (stereo not drawn) [Compound 645], for which the “Percent Mortality” value was 100% and the “Percent Growth Inhibition” value was determined as 100%. Regarding `O=C(Nc1ccc(F)cc1)OC(c1ccc(Cl)c(Cl)c1)C1CCN(Cc2ccc(Oc3ccccn3)cc2)CC1` (stereo not drawn) [Compound 646], the “Percent Mortality” value worked out at 100% and the “Percent Growth Inhibition” value is given as 100%. Regarding `O=C(Nc1cc(F)cc(F)c1)OC(c1ccc(Cl)c(Cl)c1)C1CCN(Cc2ccc(Oc3ccccn3)cc2)CC1` (stereo not drawn) [Compound 647], the “Percent Mortality” value stood at 100% and the “Percent Growth Inhibition” value was found to be 100%. For `COc1cccc(NC(=O)OC(c2ccc(Cl)c(Cl)c2)C2CCN(Cc3ccc(Oc4ccccn4)cc3)CC2)c1` (stereo not drawn) [Compound 648], the “Percent Growth Inhibition” value stood at 100%.

As for `O=C(Nc1cccc(C(F)(F)F)c1)OC(c1ccc(Cl)c(Cl)c1)C1CCN(Cc2ccc(Oc3ccccn3)cc2)CC1` (stereo not drawn) [Compound 650], the “Percent Mortality” value is 100% and the “Percent Growth Inhibition” value stood at 100%. For `O=C(Nc1ccc(C(F)(F)F)cc1)OC(c1ccc(Cl)c(Cl)c1)C1CCN(Cc2ccc(Oc3ccccn3)cc2)CC1` (stereo not drawn) [Compound 651], the “Percent Mortality” value is recorded as 100% and the “Percent Growth Inhibition” value was 100%. `O=C(Nc1ccc(Cl)cc1)OC(c1cccc(C(F)(F)F)c1)C1CCN(Cc2ccc(Oc3ccccn3)cc2)CC1` (stereo not drawn) [Compound 652]: the “Percent Mortality” value worked out at 100% and the “Percent Growth Inhibition” value amounted to 100%. For `O=C(Nc1ccc(F)cc1)OC(c1cccc(C(F)(F)F)c1)C1CCN(Cc2ccc(Oc3ccccn3)cc2)CC1` (stereo not drawn) [Compound 653], the “Percent Mortality” value is reported as 100% and the “Percent Growth Inhibition” value turned out to be 100%. For `O=C(Nc1cc(F)cc(F)c1)OC(c1cccc(C(F)(F)F)c1)C1CCN(Cc2ccc(Oc3ccccn3)cc2)CC1` (stereo not drawn) [Compound 654], the “Percent Mortality” value was determined as 100% and the “Percent Growth Inhibition” value is 100%. Take `O=C(Nc1cccc(C(F)(F)F)c1)OC(c1cccc(C(F)(F)F)c1)C1CCN(Cc2ccc(Oc3ccccn3)cc2)CC1` (stereo not drawn) [Compound 655]: the “Percent Mortality” value is on record as 100% and the “Percent Growth Inhibition” value came out at 100%. Regarding `O=C(Nc1ccc(C(F)(F)F)cc1)OC(c1cccc(C(F)(F)F)c1)C1CCN(Cc2ccc(Oc3ccccn3)cc2)CC1` (stereo not drawn) [Compound 656], the “Percent Mortality” value is listed as 100% and the “Percent Growth Inhibition” value turned out to be 100%.

As for `O=C(Nc1ccccc1)OC(c1ccc(C(F)(F)F)cc1)C1CCN(Cc2ccc(Oc3ccccn3)cc2)CC1` (stereo not drawn) [Compound 657], the “Percent Mortality” value is listed as 100% and the “Percent Growth Inhibition” value is recorded as 100%.

Consider `CN(C(=O)OC(c1ccc(C(F)(F)F)cc1)C1CCN(Cc2ccc(Oc3ccccn3)cc2)CC1)c1ccccc1` (stereo not drawn) [Compound 658], for which the “Percent Mortality” value worked out at 0% and the “Percent Growth Inhibition” value turned out to be 100%. Turning to `O=C(NCc1ccccc1)OC(c1ccc(C(F)(F)F)cc1)C1CCN(Cc2ccc(Oc3ccccn3)cc2)CC1` (stereo not drawn) [Compound 659], the “Percent Mortality” value is reported as 50% and the “Percent Growth Inhibition” value stood at 100%. The corresponding values for `CC(NC(=O)OC(c1ccc(C(F)(F)F)cc1)C1CCN(Cc2ccc(Oc3ccccn3)cc2)CC1)c1ccccc1` (stereo not drawn) [Compound 660] are 0% and 98%.

On to `O=C(Oc1ccccc1)OC(c1ccc(C(F)(F)F)cc1)C1CCN(Cc2ccc(Oc3ccccn3)cc2)CC1` (stereo not drawn) [Compound 661], for which the “Percent Mortality” value is 0% and the “Percent Growth Inhibition” value was 91%. For `O=C(Nc1ccccc1Cl)OC(c1ccc(C(F)(F)F)cc1)C1CCN(Cc2ccc(Oc3ccccn3)cc2)CC1` (stereo not drawn) [Compound 662] the same measures were 100% and 100%. The corresponding values for `O=C(NCc1ccccc1Cl)OC(c1ccc(C(F)(F)F)cc1)C1CCN(Cc2ccc(Oc3ccccn3)cc2)CC1` (stereo not drawn) [Compound 663] are 50% and 100%. As to `O=C(Nc1cccc(Cl)c1)OC(c1ccc(C(F)(F)F)cc1)C1CCN(Cc2ccc(Oc3ccccn3)cc2)CC1` (stereo not drawn) [Compound 664], the “Percent Mortality” value was 100% and the “Percent Growth Inhibition” value is recorded as 100%. Regarding `O=C(Nc1ccc(Cl)cc1)OC(c1ccc(C(F)(F)F)cc1)C1CCN(Cc2ccc(Oc3ccccn3)cc2)CC1` (stereo not drawn) [Compound 665], the “Percent Mortality” value is listed as 0% and the “Percent Growth Inhibition” value is on record as 100%. The corresponding values for `O=C(Nc1ccc(Cl)cc1)OC(c1ccc(C(F)(F)F)cc1)C1CCN(Cc2ccc(Oc3ccccn3)cc2)CC1` (stereo not drawn) [Compound 666] are 100% and 100%. The corresponding values for `FC(F)(F)c1ccc(C(OC(=S)Nc2ccc(Cl)cc2)C2CCN(Cc3ccc(Oc4ccccn4)cc3)CC2)cc1` (stereo not drawn) [Compound 667] are 100% and 100%. The corresponding values for `O=C(NS(=O)(=O)c1ccc(Cl)cc1)OC(c1ccc(C(F)(F)F)cc1)C1CCN(Cc2ccc(Oc3ccccn3)cc2)CC1` (stereo not drawn) [Compound 668] are 0% and 25%. As to `O=C(Nc1ccc(Cl)cc1)OC(c1ccc(C(F)(F)F)cc1)C1CCN(Cc2ccc(Oc3cccc[n+]3[O-])cc2)CC1` (stereo not drawn) [Compound 669], the “Percent Mortality” value was 100% and the “Percent Growth Inhibition” value worked out at 100%. Turning to `N#Cc1cccnc1Oc1ccc(CN2CCC(C(OC(=O)Nc3ccc(Cl)cc3)c3ccc(C(F)(F)F)cc3)CC2)cc1` (stereo not drawn) [Compound 670], the “Percent Mortality” value is listed as 100% and the “Percent Growth Inhibition” value was determined as 100%. On to `N#Cc1ccc(Oc2ccc(CN3CCC(C(OC(=O)Nc4ccc(Cl)cc4)c4ccc(C(F)(F)F)cc4)CC3)cc2)nc1` (stereo not drawn) [Compound 671], for which the “Percent Mortality” value stood at 100% and the “Percent Growth Inhibition” value came out at 100%. For `O=C(Nc1cccc(Br)c1)OC(c1ccc(C(F)(F)F)cc1)C1CCN(Cc2ccc(Oc3ccccn3)cc2)CC1` (stereo not drawn) [Compound 672], the “Percent Mortality” value was determined as 100% and the “Percent Growth Inhibition” value is 100%. For the compound `O=C(Nc1ccc(Br)cc1)OC(c1ccc(C(F)(F)F)cc1)C1CCN(Cc2ccc(Oc3ccccn3)cc2)CC1` (stereo not drawn) [Compound 673], the “Percent Mortality” value is reported as 100% and the “Percent Growth Inhibition” value was 100%.

As to `O=C(Nc1cccc(F)c1)OC(c1ccc(C(F)(F)F)cc1)C1CCN(Cc2ccc(Oc3ccccn3)cc2)CC1` (stereo not drawn) [Compound 674], the “Percent Mortality” value is 100% and the “Percent Growth Inhibition” value turned out to be 100%. For `O=C(Nc1ccc(F)cc1)OC(c1ccc(C(F)(F)F)cc1)C1CCN(Cc2ccc(Oc3ccccn3)cc2)CC1` (stereo not drawn) [Compound 675], the “Percent Mortality” value is listed as 100% and the “Percent Growth Inhibition” value came out at 100%.
